This note sets out measurements from patent publication EP4725957A1, “GROUP OF CYCLIC ALKALINE LIPOPEPTIDE COMPOUNDS, AND PREPARATION METHOD THEREFOR AND USE THEREOF” (Institute of Medicinal Biotechnology, Chinese Academy of …, priority 2023, dated 2024).

Format in all cases: cell-based
For data set [1], the system named is Acinetobacter baumannii ABA19-1. Particulars: ABA19-1. Put shortly:
(§1)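 Minimal inhibitory concentrations are measured following CLSI microdilution guidance in MH broth. Test concentrations run from 64 down to 0.03 mg/L in doubling steps, with a final bacterial load of (2-4) × 10^5 CFU/mL and 16-20 h incubation at 35-37°C.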

In data set [2] the test system is Escherichia coli ATCC BAA-2523. Particulars: ATCC BAA-2523. In short, it runs like this:
as §1

Data set [3] relates to Klebsiella pneumoniae ATCC BAA-1705 (KPC). Particulars: ATCC BAA-1705. Put shortly: as §1
The subject of data set [4] is Acinetobacter baumannii NCTC 13304 (OXA-27). Particulars: NCTC 13304. In short, it runs like this: as §1
The test system of data set [5] is Escherichia coli ATCC BAA-2340 (KPC). Particulars: ATCC BAA-2340. In short, it runs like this: as §1
The test system of data set [6] is Klebsiella pneumoniae KPN+19-15. Particulars: KPN+19-15. In short, it runs like this:
as §1

The subject of data set [7] is Pseudomonas aeruginosa PAE19-3. Particulars: PAE19-3. Put shortly:
as §1

The test system of data set [8] is Pseudomonas aeruginosa ATCC 27853. Particulars: ATCC 27853. In short, it runs like this:
as §1

Data set [9] in a line: Nephrotoxicity assay: in vitro cytotoxicity of HK-2 cells by CCK-8 assay. Particulars: human, HK-2 cells (human renal), 72 h incubation with drug-containing medium. Put shortly: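 HK-2 human renal cells in RPMI-1640 with 10% FBS were exposed to compounds at final 12.5–500 µg/mL for 72 h, then CCK-8 for 3 h and OD450 read. Viability was normalised to drug-free wells; IC50 came from logarithmic regression over three repeats, with polymyxin B as positive drug.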
(In general: Tetrazolium dyes change colour on reduction, which living cells bring about.)

One may read the MIC as the lowest concentration found to suppress growth. As a reminder, the IC50 is the concentration at which inhibition is half-maximal.

In brackets after ≈: the same amount, converted by molar mass. Bridge positions count the residues as written; N and C are the ends. Square brackets hold non-standard residues; d marks the D form. Peptide text beside a SMILES is read from it. * marks the point of attachment. Dab(CH2SO3H) = N[C@@H](CCNCS(=O)(=O)O)C(=O)O; Heptanoyl(6-Me) = CC(C)CCCCC(=O)*; Sulfomethyl = O=S(=O)(O)C*; Nonanoyl = CCCCCCCCC(=O)*; dDab = NCC[C@@H](N)C(=O)O; Heptanoyl = CCCCCCC(=O)*; Orn = NCCC[C@H](N)C(=O)O; Dab = NCC[C@H](N)C(=O)O; Dap = NC[C@H](N)C(=O)O

`CCCCCCC(=O)N[C@@H](CCN)C(=O)N[C@H](C(=O)N[C@@H](CCN)C(=O)N[C@H]1CCNC(=O)[C@H]([C@@H](C)O)NC(=O)[C@H](CCN)NC(=O)[C@H](CCN)NC(=O)[C@H]([C@@H](C)O)NC(=O)[C@@H](Cc2ccccc2)NC(=O)[C@H](CCN)NC1=O)[C@@H](C)O` [Compound 19, Heptanoyl-Dab-Thr-Dab-ring(4-10)[Dab-Dab-D-Phe-Thr-Dab-Dab-Thr]] (Heptanoyl-[Dab]T[Dab][Dab][Dab][dF]T[Dab][Dab]T; lactam 4-C): the MIC in [1] is 0.5 mg/L (≈ 0.43 µM); in data set [2] it was 0.03 mg/L (≈ 0.0258 µM); in data set [3], 0.06 mg/L (≈ 0.0516 µM); in [4], 0.25 mg/L (≈ 0.215 µM); in [5] it was 0.03 mg/L (≈ 0.0258 µM); in data set [6], 0.03 mg/L (≈ 0.0258 µM). The MIC in data set [7] and in data set [8] was 2 mg/L (≈ 1.72 µM) throughout. The compound also showed an IC50 at 72 h in [9] above 500 mg/L.
With `CCCCCCCCC(=O)N[C@@H](CCN)C(=O)N[C@H](C(=O)N[C@H](CO)C(=O)N[C@H]1CCNC(=O)[C@H]([C@@H](C)O)NC(=O)[C@H](CCN)NC(=O)[C@H](CCCN)NC(=O)[C@H]([C@@H](C)O)NC(=O)[C@@H](Cc2ccccc2)NC(=O)[C@H](CCN)NC1=O)[C@@H](C)O` [Compound 80, Nonanoyl-Dab-Thr-D-Ser-ring(4-10)[Dab-Dab-D-Phe-Thr-Orn-Dab-Thr]] (Nonanoyl-[Dab]T[dS][Dab][Dab][dF]T[Orn][Dab]T; lactam 4-C), the MIC worked out at 0.06 mg/L (≈ 0.0503 µM) in [1]; 0.06 mg/L (≈ 0.0503 µM) in [2]; 0.25 mg/L (≈ 0.21 µM) in data set [3]; 0.03 mg/L (≈ 0.0252 µM) in data set [4]; 0.06 mg/L (≈ 0.0503 µM) in data set [5]; 0.5 mg/L (≈ 0.419 µM) in data set [6]. In addition, the MIC in [7] is 64 mg/L (≈ 53.7 µM); in [8] it was above 64 mg/L. In [9], the IC50 at 72 h came to 288 ± 19.5 mg/L (≈ 241 µM).
Turning to `CC(C)CCCCC(=O)N[C@@H](CCN)C(=O)N[C@H](C(=O)N[C@@H](CN)C(=O)N[C@H]1CCNC(=O)[C@H]([C@@H](C)O)NC(=O)[C@H](CCNCS(=O)(=O)O)NC(=O)[C@H](CCN)NC(=O)[C@H]([C@@H](C)O)NC(=O)[C@@H](Cc2ccccc2)NC(=O)[C@H](CCN)NC1=O)[C@@H](C)O` [Compound 120, 6-methylheptanoyl-Dab-Thr-Dap-ring(4-10)[Dab-Dab-D-Phe-Thr-Dab-Dab(CH2SO3H)-Thr]] ({Heptanoyl(6-Me)}-[Dab]T[Dap][Dab][Dab][dF]T[Dab][Dab(CH2SO3H)]T; lactam 4-C), the MIC in data set [1] was found to be 0.25 mg/L (≈ 0.199 µM); in [2] it was 0.06 mg/L (≈ 0.0477 µM); in [3] it was 0.125 mg/L (≈ 0.0994 µM); in [4], 0.06 mg/L (≈ 0.0477 µM); in data set [5], 0.06 mg/L (≈ 0.0477 µM); in [6], 0.125 mg/L (≈ 0.0994 µM). The MIC worked out at 0.5 mg/L (≈ 0.398 µM) in data set [7] and 0.25 mg/L (≈ 0.199 µM) in data set [8]. In [9], this compound displayed an IC50 at 72 h above 500 mg/L.
On to `CC(C)CCCCC(=O)N[C@@H](CCN)C(=O)N[C@H](C(=O)N[C@H](CO)C(=O)N[C@H]1CCNC(=O)[C@H]([C@@H](C)O)NC(=O)[C@H](CCCN)NC(=O)[C@H](CCN)NC(=O)[C@H]([C@@H](C)O)NC(=O)[C@@H](Cc2ccccc2)NC(=O)[C@H](CCN)NC1=O)[C@@H](C)O` [Compound 87, 6-methylheptanoyl-Dab-Thr-D-Ser-ring(4-10)[Dab-Dab-D-Phe-Thr-Dab-Orn-Thr]] ({Heptanoyl(6-Me)}-[Dab]T[dS][Dab][Dab][dF]T[Dab][Orn]T; lactam 4-C), for which the MIC was 0.06 mg/L (≈ 0.0509 µM) in data set [1]; 0.03 mg/L (≈ 0.0255 µM) in [2]; 0.25 mg/L (≈ 0.212 µM) in [3]; at most 0.03 mg/L in data set [4]; 0.03 mg/L (≈ 0.0255 µM) in data set [5]; 0.5 mg/L (≈ 0.424 µM) in data set [6]. For the same compound, the MIC in data set [7] was 64 mg/L (≈ 54.3 µM); in data set [8] it was above 64 mg/L. This compound had an IC50 at 72 h in [9] above 500 mg/L.
In the case of `CCCCCCCCC(=O)N[C@@H](CCN)C(=O)N[C@H](C(=O)N[C@H](CO)C(=O)N[C@H]1CCNC(=O)[C@H]([C@@H](C)O)NC(=O)[C@H](CN)NC(=O)[C@H](CCN)NC(=O)[C@H]([C@@H](C)O)NC(=O)[C@@H](Cc2ccccc2)NC(=O)[C@H](CCN)NC1=O)[C@@H](C)O` [Compound 85, Nonanoyl-Dab-Thr-D-Ser-ring(4-10)[Dab-Dab-D-Phe-Thr-Dab-Dap-Thr]] (Nonanoyl-[Dab]T[dS][Dab][Dab][dF]T[Dab][Dap]T; lactam 4-C), the MIC worked out at 0.06 mg/L (≈ 0.0515 µM) in data set [1]; 0.25 mg/L (≈ 0.215 µM) in data set [2]; 0.25 mg/L (≈ 0.215 µM) in data set [3]; 0.03 mg/L (≈ 0.0258 µM) in [4]; 0.25 mg/L (≈ 0.215 µM) in data set [5]; 0.5 mg/L (≈ 0.429 µM) in data set [6]. Also, the values for the MIC in data set [7] and in data set [8] were 64 mg/L (≈ 55 µM) and above 64 mg/L, respectively. For the same compound, the IC50 at 72 h in data set [9] worked out at 357 ± 28.8 mg/L (≈ 307 µM).
On to `CC(C)CCCCC(=O)N[C@@H](CCN)C(=O)N[C@H](C(=O)N[C@H](COCS(=O)(=O)O)C(=O)N[C@H]1CCNC(=O)[C@H]([C@@H](C)O)NC(=O)[C@H](CCN)NC(=O)[C@H](CCN)NC(=O)[C@H]([C@@H](C)O)NC(=O)[C@@H](Cc2ccccc2)NC(=O)[C@H](CCN)NC1=O)[C@@H](C)O` [Compound 103, 6-methylheptanoyl-Dab-Thr-D-Ser(CH2SO3H)-ring(4-10)[Dab-Dab-D-Phe-Thr-Dab-Dab-Thr]] ({Heptanoyl(6-Me)}-[Dab]T[dS](Sulfomethyl)[Dab][Dab][dF]T[Dab][Dab]T; lactam 4-C), for which the MIC in data set [1] was determined as 0.06 mg/L (≈ 0.0477 µM); in [2] it was 0.03 mg/L (≈ 0.0238 µM); in data set [3], 0.125 mg/L (≈ 0.0993 µM); in [4] it was 0.06 mg/L (≈ 0.0477 µM); in [5], 0.03 mg/L (≈ 0.0238 µM); in [6], 0.125 mg/L (≈ 0.0993 µM). The MIC in data set [7] and in data set [8] was 0.25 mg/L (≈ 0.199 µM) each time. Further, the IC50 at 72 h in data set [9] was above 500 mg/L.
Take `CCCCCCC(=O)N[C@@H](CCN)C(=O)N[C@H](C(=O)N[C@@H](CCCN)C(=O)N[C@H]1CCNC(=O)[C@H]([C@@H](C)O)NC(=O)[C@H](CCN)NC(=O)[C@H](CCN)NC(=O)[C@H]([C@@H](C)O)NC(=O)[C@@H](Cc2ccccc2)NC(=O)[C@H](CCN)NC1=O)[C@@H](C)O` [Compound 29, Heptanoyl-Dab-Thr-Orn-ring(4-10)[Dab-Dab-D-Phe-Thr-Dab-Dab-Thr]] (Heptanoyl-[Dab]T[Orn][Dab][Dab][dF]T[Dab][Dab]T; lactam 4-C): the MIC was determined as 0.125 mg/L (≈ 0.106 µM) in data set [1]; 0.03 mg/L (≈ 0.0255 µM) in data set [2]; 0.03 mg/L (≈ 0.0255 µM) in [3]; 0.06 mg/L (≈ 0.051 µM) in data set [4]; 0.03 mg/L (≈ 0.0255 µM) in [5]; 0.03 mg/L (≈ 0.0255 µM) in data set [6]. The MIC in [7] was 0.5 mg/L (≈ 0.425 µM); in [8], 0.03 mg/L (≈ 0.0255 µM). For the same compound, the IC50 at 72 h in [9] is above 500 mg/L.
On to `CCCCCCCCC(=O)N[C@@H](CN)C(=O)N[C@H](C(=O)N[C@H](CCN)C(=O)N[C@H]1CCNC(=O)[C@H]([C@@H](C)O)NC(=O)[C@H](CCN)NC(=O)[C@H](CCN)NC(=O)[C@H](CC(C)C)NC(=O)[C@@H](CC(C)C)NC(=O)[C@H](CCN)NC1=O)[C@@H](C)O` [Compound 100, Nonanoyl-Dap-Thr-D-Dab-ring(4-10)[Dab-Dab-D-Leu-Leu-Dab-Dab-Thr]] (Nonanoyl-[Dap]T[dDab][Dab][Dab][dL]L[Dab][Dab]T; lactam 4-C), for which the MIC in data set [1] was 0.06 mg/L (≈ 0.0519 µM); in data set [2] it was 0.125 mg/L (≈ 0.108 µM); in [3] it was 0.06 mg/L (≈ 0.0519 µM); in data set [4], 0.06 mg/L (≈ 0.0519 µM); in [5] it was 0.125 mg/L (≈ 0.108 µM); in data set [6], 0.06 mg/L (≈ 0.0519 µM). Besides, the MIC in [7] and in data set [8] was 1 mg/L (≈ 0.865 µM) in each case. The compound further came in with an IC50 at 72 h in data set [9] of 117 ± 15.6 mg/L (≈ 101 µM).
With `CC(C)CCCCC(=O)N[C@@H](CCN)C(=O)N[C@H](C(=O)N[C@@H](CN)C(=O)N[C@H]1CCNC(=O)[C@H]([C@@H](C)O)NC(=O)[C@H](CCN)NC(=O)[C@H](CCN)NC(=O)[C@H](CC(C)C)NC(=O)[C@@H](Cc2ccccc2)NC(=O)[C@H](CCN)NC1=O)[C@@H](C)O` [Compound 37, 6-methylheptanoyl-Dab-Thr-Dap-ring(4-10)[Dab-Dab-D-Phe-Leu-Dab-Dab-Thr]] ({Heptanoyl(6-Me)}-[Dab]T[Dap][Dab][Dab][dF]L[Dab][Dab]T; lactam 4-C), the MIC in data set [1], in data set [2], in data set [3], in [4], in data set [5] and in data set [6] was 0.03 mg/L (≈ 0.0255 µM) each time. Also, the MIC in data set [7] stood at 0.25 mg/L (≈ 0.213 µM); in [8], 0.03 mg/L (≈ 0.0255 µM). In [9], the IC50 at 72 h was determined as 318 ± 10.2 mg/L (≈ 270 µM).
